Data taken from paper PMC5460289, “Identification of New Shikonin Derivatives as Antitumor Agents Targeting STAT3 SH2 Domain” (Scientific Reports, 2017).

Tests used:
Type in all cases: cell-based, human
[1] = test system: PARP and caspase 3 cleavage in MDA-MB-231 cells; assay: Western blot of PARP and caspase 3 cleavage; conditions: MDA-MB-231, 24 h treatment
Description: To determine whether PMM-172 induced apoptosis, Annexin V/PI double staining assay was conducted. MDA-MB-231 cells were treated with various concentrations of PMM-172 for 24 h, and the percentage of apoptotic cells was markedly elevated in a dose-dependent manner. Likewise, MDA-MB-231 cells were treated with corresponding doses of Stattic. […] The percentages of cell apoptosis 3.12%, 8.12%, 16.81%, 62.74% corresponded to the concentration of PMM-172 0, 2, 4 and 8 μM, respectively, including both the early and the late apoptotic cells. Clearly, PMM-172 can cause cell apoptosis more effectively than Stattic. Moreover, an extend time-course apoptosis analysis of MDA-MB-231 cells treated with 4 μM PMM-172 was carry out. […] To further assess the pro-apoptotic effect of PMM-172, we evaluated the cleavage of poly (ADP-ribose) polymerase (PARP) and caspase 3 in MDA-MB-231 cells after 24 h treatment with PMM-172. […]
Figure 4 The effect of PMM-172 on the cell apoptosis of MDA-MB-231 cells. […] Apoptosis was analyzed by flow cytometry by using Annexin V/PI double staining. […] (E) PARP and caspase 3 cleavage in MDA-MB-231 cells after treated with various concentrations of PMM-172 for 24 h were detected by using Western blot analysis. The relative expression level was analyzed by Image J software. […]

MDA-MB-231 cells [2] = assay: Mitochondrial transmembrane potential by JC-1 staining; conditions: 4 h treatment, control 92.3%
Description: Subsequently, the mitochondrial transmembrane potential was monitored using JC-1 staining. […] Red fluorescence represents the mitochondrial aggregate form of JC-1 with high ∆Ψm in normal cells. Green fluorescence represents the monomeric form of JC-1 with low ∆Ψm in apoptotic cells.
Figure 5 Mitochondrial transmembrane potential was analysed in PMM-172-treated MDA-MB-231 cells by JC-1 staining. TEXT PRINTED IN THE PICTURE: no label printed: Q1 1.74% (0 μM); Q2 92.3% (0 μM); Q4 0.011% (0 μM); Q3 5.94% (0 μM); Q1 1.88% (2 μM); Q2 73.3% (2 μM); Q4 0.179% (2 μM); Q3 24.6% (2 μM); Q1 1.88% (4 μM); Q2 64.6% (4 μM); Q4 0.227% (4 μM); Q3 33.3% (4 μM); Q1 0.436% (8 μM); Q2 21.3% (8 μM); Q4 0.016% (8 μM); Q3 78.2% (8 μM) DOUBTS OF THE COPYIST ABOUT THIS PICTURE: The picture prints no label for the substance; the plots are told apart only by concentration (0, 2, 4, 8 μM), and the 0 μM plot is the untreated control. / The quadrant percentages are printed very small, so 3, 5, 6, 8 and 9 cannot be told apart with certainty and all readings are best readings: 0 μM: Q1 1.74%, Q2 92.3%, Q3 5.94%, Q4 0.011%; 2 μM: Q1 1.88%, Q2 73.3%, Q3 24.6%, Q4 0.179%; 4 μM: Q1 1.88%, Q2 64.6%, Q3 33.3%, Q4 0.227%; 8 μM: Q1 0.436%, Q2 21.3%, Q3 78.2%, Q4 0.016% […]

MDA-MB-231 cells [3] = assay: Annexin V/PI double staining apoptosis assay (flow cytometry); conditions: for percentage of cell apoptosis (early and late apoptotic cells): 24 h, MDA-MB-231, control 3.12%
Description: To determine whether PMM-172 induced apoptosis, Annexin V/PI double staining assay was conducted. MDA-MB-231 cells were treated with various concentrations of PMM-172 for 24 h, and the percentage of apoptotic cells was markedly elevated in a dose-dependent manner. Likewise, MDA-MB-231 cells were treated with corresponding doses of Stattic. […] The percentages of cell apoptosis 3.12%, 8.12%, 16.81%, 62.74% corresponded to the concentration of PMM-172 0, 2, 4 and 8 μM, respectively, including both the early and the late apoptotic cells. Clearly, PMM-172 can cause cell apoptosis more effectively than Stattic. Moreover, an extend time-course apoptosis analysis of MDA-MB-231 cells treated with 4 μM PMM-172 was carry out. […] To further assess the pro-apoptotic effect of PMM-172, we evaluated the cleavage of poly (ADP-ribose) polymerase (PARP) and caspase 3 in MDA-MB-231 cells after 24 h treatment with PMM-172. In this case, the active form of PARP involved in DNA repair and programmed cell death is considered as the hallmark of apoptosis.
Figure 4 The effect of PMM-172 on the cell apoptosis of MDA-MB-231 cells. (A) MDA-MB-231 cells were treated with various concentrations of PMM-172 or Stattic for 24 h, or treated with 4 μM PMM-172 for different time. Apoptosis was analyzed by flow cytometry by using Annexin V/PI double staining. (B) The percentage of apoptotic cells in MDA-MB-231 cells treated with various concentrations of PMM-172 for 24 h. (C) The percentage of apoptotic cells in MDA-MB-231 cells treated with 4 μM PMM-172 for different time. (D) The percentage of apoptotic cells in MDA-MB-231 cells treated with various concentrations of Stattic for 24 h. (E) PARP and caspase 3 cleavage in MDA-MB-231 cells after treated with various concentrations of PMM-172 for 24 h were detected by using Western blot analysis. The relative expression level was analyzed by Image J software. […]
Approximately 10^5 cells/well were plated in a 24 well plate and allowed to adhere. […] The samples were then analyzed by a FACSCalibur flow cytometer (Becton Dickinson, San Jose, CA, USA).

COc1cc(OC)cc(-c2nnc(SCC(=O)O[C@H](CC=C(C)C)C3=CC(=O)c4c(O)ccc(O)c4C3=O)o2)c1 [PMM-172, (R)-1-(5,8-dihydroxy-1,4-dioxo-1,4-dihydronaphthalen-2-yl)-4-methylpent-3-en-1-yl 2-((5-(3,5-dimethoxyphenyl)-1,3,4-oxadiazol-2-yl)thio)acetate]
PARP and caspase 3 cleavage [1]: could induce PARP and caspase 3 cleavage
JC-1 quadrant Q2 (ratio of cells with high membrane potential) (MDA-MB-231 cells [2]; 4 μM): 64.6%
JC-1 quadrant Q2 (ratio of cells with high membrane potential) (MDA-MB-231 cells [2]; 8 μM): 21.3%
percentage of cell apoptosis (early and late apoptotic cells) (MDA-MB-231 cells [3]; 4 μM): 16.81%
percentage of cell apoptosis (early and late apoptotic cells) (MDA-MB-231 cells [3]; 8 μM): 62.74%
induction of apoptosis (MDA-MB-231 cells [3]; MDA-MB-231, Annexin V/PI): induced apparent apoptosis in MDA-MB-231 cells in dose- and time- dependent manners
